Patent US5703056A, “Non-invasive imaging of gene transfer” (priority 1995, dated 1997)

Experiments:
[1] = cited from earlier work
[2] = test system: RG2TK+ and RG2 tumors; assay: Tissue sampling of FIAU- and IUdR-derived radioactivity in i.c. and s.c. RG2TK+ and RG2 tumors; assay type: in vivo, rat; details: 24 h, percent dose per gram
Experimental: Animal preparation and tumor inoculation Two male Fisher 344 rats weighing 250±20 g were anesthetized with a gas mixture consisting of 2% Isoflurane, 70% nitrous oxide and 30% oxygen. A 2% lidocaine gel was applied to the ears and the head was fixed with a stereotaxic device. After midline scalp incision, a burr hole was made through the skull 1 mm posterior and 3 mm lateral to the bregma. The tumor cell suspensions were aspirated into a 50 μl gas tight Hamilton syringe (Ga. 25) and attached to a stereotaxic device. The syringe needle was then inserted 6 mm deep into the caudate nucleus and the cell suspension (10^5 cells in 10 μl) was slowly injected over 2 minutes. RG2TK+ cells were injected into the left hemisphere, and RG2 cells were injected into the right hemisphere. Bone wax was applied to cover the skull defect and the scalp was closed with 4.0 silk suture. Subcutaneous inoculations (10^6 cells in 50 μl) were also performed (RG2TK+ cells into the left flank and RG2 cells into the right flank). After the procedure, the animals were marked and placed in standard cages with water and Rodent LabChow #5001 (Purina Mills, Inc.) ad libitum. Comparison of different "marker substrates" for identifying HSV1-TK expression in animals After 10 days of tumor growth, both animals received i.v. injections of [^123 I]-IUdR (400 uCi) and [^14 C]-FIAU (10 uCi). Radioactivity was allowed to clear from the body over 24 hours to reduce tissue background activity, predominantly due to radiolabelled iodide, the major metabolite of [^123 I]-IUdR. [Tjuvajev, J. G., Muraki, A., Ginos, J., Berk, J., Koutcher, J., Ballon, D., Beattie, B., Finn, R., and Biasberg, R., J. Nucl. Med., 34: 1152-62, 1993; Tjuvajev, J. G., Macapinlac, H. A., Daghighian, F., Scott, A. M., ginos, J. Z., Finn, R. D., Kothari, P., Desai, R., Zhang, Z., Beattie, B., Graham, M., Larson, S., and Blasberg, R. G., J. Nucl. Med., 35: 1407-17, 1994] The rats were killed at 24 hours under anesthesia; samples of tumor and adjacent tissue were disected and weighed, blood and plasma were obtained, and radioactivity was measured. Decay corrected ^123 I-radioactivity was assayed in a Packard AutoGamma 5550 Spectrometer; samples were stored in a refrigerator for 1 week to allow for ^123 I decay (>12 half lives) and ^14 C-radioactivity was measured in a Packard B1600 TriCarb beta spectrometer using external standard quench correction. Sample radioactivity was expressed as a percent of administered dose per gram of tissue of per unit volume of fluid.

[3] = target: HSV1-TK (Human alphaherpesvirus 1 strain 17, UniProt P0DTH5); assay: Single 120 minute paired accumulation of FIAU and IUdR by RG2TK+ and RG2 cells; assay type: cell-based, herpes simplex virus; details: Data from FIG. 6A
Chain of HSV1-TK (P0DTH5 whole entry): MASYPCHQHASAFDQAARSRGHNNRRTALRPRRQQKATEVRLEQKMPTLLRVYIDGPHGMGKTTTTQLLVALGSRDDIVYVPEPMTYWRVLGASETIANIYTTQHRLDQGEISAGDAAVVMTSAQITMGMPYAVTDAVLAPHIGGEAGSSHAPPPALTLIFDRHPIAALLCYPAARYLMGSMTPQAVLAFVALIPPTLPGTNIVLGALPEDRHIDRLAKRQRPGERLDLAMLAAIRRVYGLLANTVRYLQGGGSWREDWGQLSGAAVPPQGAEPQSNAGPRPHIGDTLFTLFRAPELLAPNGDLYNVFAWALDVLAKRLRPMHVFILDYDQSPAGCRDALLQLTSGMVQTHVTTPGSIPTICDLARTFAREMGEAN
Experimental: The processing of cells and incubation medium was the same as that described above. A portion of the harvested cells was also processed for acid-insoluble (10% TCA) radioactivity. Decay corrected ^123 I-radioactivity was measured in a Packard AutoGamma 5550 Spectrometer. Samples were stored for 1 week to allow for ^123 I decay (12 half lives), and recounted afterwards in the Packard B1600 TriCarb beta spectrometer to determine ^3 H- and ^14 C-radioactivity.
All radioactivity measurements were expressed as a percent of administered dose per gram of tissue or per unit volume of fluid as described above.
Data analysis. […] These two related measures are useful to evaluate the intensity of the images (e.g., high "sensitivity") and the ability to differentiate between HSV1-TK and endogenous-TK in the images (e.g., high "selectivity"). The "selectivity" measure is not interpreted as a relative sensitivity (i.e., a value of 1 indicating equal sensitivity) of the substrate to HSV1-TK vs. endogenous-TK. […] They are intended for the direct comparison of substrates only.

[4] = test system: in vivo transduced RG2(TK+) tumor; assay: Quantitative autoradiography of 2-[14C]-FIAU after in vivo transfection of RG2 tumors by the STK retrovirus; set-up: species or system rat; details: 24 h
Experimental: (§1) Imaging in vivo transfection of RG2 tumors by the STK retrovirus in experimental animals. […] The left hemisphere was inoculated with gp-STK-A2 vector-producer cells only. Ten days after inoculation, animals were injected i.v. with 50 uCi of 2-[^14 C]-FIAU, killed 24 hours later and the brain was processed for QAR and histology. The HSV1-tk transfected tumor was well visualized on the autoradiographic image (FIG. 11B). […] Surrounding normal brain and the area inoculated only with gp-STK-A2 vector-producer cells are poorly or not at all visualized. […] Quantitative analysis yielded mean activities of 0.34±0.24% dose/g for the in vivo transduced RG2(TK+) and 0.028±0.023% dose/g for the gp-STK-A2 vector-producer cell inoculated area prior to rinsing.

[5] = as above; set-up: species or system rat; details: rat, iv, 50 uCi
Experimental: as §1

[6] = test system: RG2TK+ and RG2 tumors; assay: Quantitative autoradiography of 2-[14C]-FIAU in i.c. RG2TK+ and RG2 tumors; assay type: in vivo, rat; details: for Sensitivity* Δ(substrate % dose/g)/Δ(HSV1TK mRNA/S28 RNA IOD): autoradiographic data
Experimental: (§2) Two rats were prepared with i.c. RG2TK+ and RG2 tumors as described above. […] The brain was rapidly extracted and frozen in preparation for cryosectioning and quantitative autoradiography (QAR). [Blasberg, Seminars in Neurology] […] To convert the x-ray images to tissue radioactivity (nCi/g), the optical density of the standards was measured by computerized image analysis. A standard curve that relates mean optical density and tissue radioactivity was generated for each film. […]

[7] = as above; assay type: in vivo, rat; details: rat, iv, 50 uCi
Experimental: as §2

SMILES: O=c1[nH]c(=O)n([C@@H]2O[C@H](CO)[C@@H](O)[C@@H]2F)cc1I [FIAU, 2'-fluoro-5-iodo-1-β-D-arabinofuranosyl-uracil]
- organ damage in clinical trial ([1]; human, in vivo): severe liver and pancreatic damage
- dose-limiting toxicity ([1]; pharmacologic doses): dose-limiting gastrointestinal, hematologic and neurotoxicity
- Sensitivity* (uptake in RG2TK+ tumor - uptake in RG2 tumor)/(HSV1TK mRNA/S28 RNA IOD in RG2TK+ cells) ([2]; RG2TK+/RG2 i.c. tumors): 0.0025
- Sensitivity* (uptake in RG2TK+ tumor - uptake in RG2 tumor)/(HSV1TK mRNA/S28 RNA IOD in RG2TK+ cells) ([2]; RG2TK+/RG2 s.c. tumors): 0.0150
- Sensitivity* Δ(substrate/TdR)/Δ(HSV1TK mRNA/S28 RNA IOD) [3]: 0.0105
- adjacent brain activity ([4]; level of detection on the autoradiograms): below the level of detection
- peak activity ([4]; in vivo transduced RG2(TK+) tumor): 0.96 % dose/g
- tissue uptake at 24 h ([5]; gp-STK-A2 vector-producer cell inoculated area, prior to rinsing, read-out: mean activity): 0.028 ± 0.023 %ID/g
- tissue uptake at 24 h ([5]; in vivo transduced RG2(TK+) tumor, prior to rinsing, read-out: mean activity): 0.34 ± 0.24 %ID/g
- tissue uptake at 24 h ([5]; in vivo transduced RG2(TK+) tumor, read-out: peak activity): 0.96 %ID/g
- difference in radioactivity localized to transduced compared to non-transduced tumor ([6]; 4 hours after tracer, RG2TK#16 vs RG2 i.c., non-rinsed autoradiogram): only a small difference
- Sensitivity* Δ(substrate % dose/g)/Δ(HSV1TK mRNA/S28 RNA IOD) ([6]; RG2TK#16/RG2 i.c. tumors): 0.0058
- Sensitivity* Δ(substrate % dose/g)/Δ(HSV1TK mRNA/S28 RNA IOD) ([6]; RG2TK+/RG2 i.c. tumors): 0.0039
- peak activity ([6]; i.c. RG2TK+ tumor, 24 h): 0.43 % dose/g
- tissue uptake at 24 h ([7]; brain, 24 h, level of detection on the autoradiograms, read-out: adjacent brain activity): < 0.005 %ID/g
- tissue uptake at 24 h ([7]; i.c. rg2tk+ tumor, i.c. RG2TK+ tumor, 24 h, read-out: peak activity): 0.43 %ID/g
- tissue uptake at 24 h ([7]; intracerebral tumor, i.c. RG2TK+ tumor, 24 h after 50 uCi 2-[14C]-FIAU i.v., read-out: mean activity): 0.18 ± 0.14 %ID/g
